Where “and” joins values, the source holds several entries; their conditions need not be identical. Identical values can stand only once.
Tests used:
[1] = molecular target: T1, recombinant OCTN1 (Homo sapiens, UniProt Q9H015); test: [3H]-acetylcholine uptake in proteoliposomes reconstituted with recombinant OCTN1 over-expressed in E. coli; type: biochemical; details: for IC50: [3H]-acetylcholine uptake 0.1 mM, 20 min
T1 construct: made in house; host or cells: E. coli
T1 sequence (Q9H015 1-551): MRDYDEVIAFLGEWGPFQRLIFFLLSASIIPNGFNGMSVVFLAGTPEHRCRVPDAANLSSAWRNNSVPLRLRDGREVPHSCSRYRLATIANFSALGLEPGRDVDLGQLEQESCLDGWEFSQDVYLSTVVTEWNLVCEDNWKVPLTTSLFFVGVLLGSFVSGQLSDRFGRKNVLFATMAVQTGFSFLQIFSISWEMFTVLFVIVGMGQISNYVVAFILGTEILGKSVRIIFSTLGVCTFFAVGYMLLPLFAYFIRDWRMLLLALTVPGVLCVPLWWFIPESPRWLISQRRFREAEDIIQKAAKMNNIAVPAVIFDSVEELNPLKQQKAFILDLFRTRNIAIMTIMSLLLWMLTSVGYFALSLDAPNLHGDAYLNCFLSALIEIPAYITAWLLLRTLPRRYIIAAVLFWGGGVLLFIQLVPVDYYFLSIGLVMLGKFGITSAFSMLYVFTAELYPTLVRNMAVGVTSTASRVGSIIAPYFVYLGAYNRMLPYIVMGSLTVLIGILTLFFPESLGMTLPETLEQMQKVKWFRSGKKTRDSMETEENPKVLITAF
Experimental: (§1) OCTN1 over-expressed in E. coli and purified as previously described was used for reconstitution in liposomes. The composition of the initial mixture used for reconstitution (except when differently indicated) was 200 µL of the purified protein (5 µg protein in 0.05% DDM), CHS at the indicated concentrations solubilized in 240 µL of 20 mM Tris/HCl (pH 7.5) and 5% Triton X-100 or buffer and Triton X-100 alone in the case of samples without CHS, 120 µL of 10% egg yolk phospholipids in the form of sonicated liposomes prepared as previously described, 16 mM ATP and (where indicated) in a final volume of 700 μL. The purified OCTN1 inserted in liposomal membrane by removing the detergent from mixed micelles containing detergent, protein, and phospholipids with Amberlite XAD-4 in a batch-wise procedure. Where indicated, proteoliposome internal volume was measured using a colorimetric phosphate method. In detail, 30 mM dipotassium phosphate (K2HPO4) was added to the reconstitution mixture. After elution from Sephadex G75 pre-equilibrated with 5 mM Tris/HCl (pH 7.5), 100 µL of sample were used for the colorimetric reaction. A solution containing 150 µL of 10% SDS was used to solubilize liposomal membranes. Then, 700 µL of a solution prepared with 10 mM hexammonium heptamolybdate 4-hydrate, 0.3 mM H2SO4 and 0.1 mM FeSO4 was added starting an incubation of 30 min in the dark. At the end, absorbance from each sample was measured at 578 nm. Internal volume in µL was derived from nmol of phosphate incorporated in liposomes.
(§2) Proteoliposomes (550 µL) were passed through a Sephadex G-75 column (0.7 cm diameter x 15 cm height) pre-equilibrated with 5 mM Tris/HCl (pH 7.5). The first 550 µL turbid eluate was collected and divided in aliquots (samples) of 100 µL each. Transport was started by adding 0.1 mM [^14C]-TEA or [^3H]-acetylcholine to the proteoliposome samples and stopped by adding 0.5 mM HgCl2 at the desired time interval. In control samples, the inhibitor was added at time zero according to the inhibitor stop method. Finally, each sample of proteoliposomes (100 µL) was passed through a Sephadex G-75 column (0.6 cm diameter × 8 cm height) in order to separate the external from the internal radioactivity. Liposomes were eluted with 1 mL of 50 mM NaCl and collected in 4ml of scintillation mixture, vortexed, and counted. The experimental values were corrected by subtracting the respective controls. The uptake time course data were interpolated using a first order rate equation from which rate constants were derived as the product of k (the first order rate constant) and the transport at the equilibrium. Data from dose-response experiments were fitted into an IC50 equation. For kinetic experiments the initial rate of transport expressed as nmol ⋅ min^−1 ⋅ mg protein^−1, was measured by stopping the reaction after 10 min, i.e., within the initial linear range of [^14C]-TEA or [^3H]-acetylcholine uptake into the proteoliposomes. Kinetic constants were estimated from interpolation of the experimental data into a Lineweaver–Burk equation. The Grafit (version 5.0.3) software was used for calculations.

[2] = molecular target: T1, recombinant OCTN1; test: [14C]-TEA uptake in proteoliposomes reconstituted with recombinant OCTN1 over-expressed in E. coli; type: biochemical; details: for IC50: [14C]-TEA uptake 0.1 mM, 20 min
Experimental: as §1
(§3) Proteoliposomes reconstituted with the recombinant OCTN1 and added or not with CHS were incubated with MβCD as above described and then, MβCD was removed by chromatography on Sephadex G-75 column as described in Section 4.7.
as §2

[3] = molecular target: T1, recombinant OCTN1; test: Immunodetection of OCTN1 incorporated in proteoliposomes (anti-His antibody)
[4] = molecular target: T2, native human OCTN1 (Homo sapiens, UniProt Q9H015); test: [14C]-TEA uptake in proteoliposomes reconstituted with native OCTN1 extracted from HeLa cells; type: biochemical; details: 0.1 mM [14C]-TEA
T2 construct: the native human OCTN1, the protein extracted from HeLa cells was exploited; endogenous in cells; host or cells: HeLa cells (Triton X-100 extract reconstituted in proteoliposomes)
T2 sequence (Q9H015 1-551): T1 sequence (Q9H015 1-551)
Experimental: HeLa cells pellet was treated with 150 µL TX-100 10%. After vortexing cells have been incubated 30 min on ice and then centrifuged 10 min 12.000× g at 4 °C. The cell membrane extract (supernatant) was used for the reconstitution. 30 µL supernatant were included to the reconstitution mixture containing 120 µL 10% egg yolk phospholipids in the form of sonicated liposomes prepared as previously described, 80 µL 10% Triton X-100 solution, 16 mM ATP, 7 µL of 500 mM Tris/HCl (pH 7.5) in a final volume of 700 μL.
Each HeLa cell sample or HeLa cell extract was incubated with 10 mM MβCD for 90 min at 37 °C under stirring. Then, the respective extracts were reconstituted in proteoliposomes.
Proteoliposomes (550 µL) were passed through a Sephadex G-75 column (0.7 cm diameter x 15 cm height) pre-equilibrated with 5 mM Tris/HCl (pH 7.5). […] Finally, each sample of proteoliposomes (100 µL) was passed through a Sephadex G-75 column (0.6 cm diameter × 8 cm height) in order to separate the external from the internal radioactivity. Liposomes were eluted with 1 mL of 50 mM NaCl and collected in 4ml of scintillation mixture, vortexed, and counted. […] For kinetic experiments the initial rate of transport expressed as nmol ⋅ min^−1 ⋅ mg protein^−1, was measured by stopping the reaction after 10 min, i.e., within the initial linear range of [^14C]-TEA or [^3H]-acetylcholine uptake into the proteoliposomes. […]

[5] = Enzymatic quantitation of cholesterol/CHS in proteoliposome lipids; details: proteoliposomes with initial 8.3% CHS, 10 mM MβCD
Experimental: as §3
Quantitation was performed using the Cholesterol Quantitation Kit MAK043 by Merck Life Science s.r.l., 20149 Milan, Italy,). Assay was performed in the presence of cholesterol esterase with absorbance measured on a microplate reader at 570 nm.

[6] = substrate: CC(=O)OCC[N+](C)(C)C; test: [3H]-acetylcholine uptake in proteoliposomes reconstituted with recombinant OCTN1 over-expressed in E. coli; type: biochemical, human; details: other: in the absence of CHS; pH 7.5
Experimental: OCTN1 over-expressed in E. coli and purified as previously described was used for reconstitution in liposomes. The composition of the initial mixture used for reconstitution (except when differently indicated) was 200 µL of the purified protein (5 µg protein in 0.05% DDM), CHS at the indicated concentrations solubilized in 240 µL of 20 mM Tris/HCl (pH 7.5) and 5% Triton X-100 or buffer and Triton X-100 alone in the case of samples without CHS, 120 µL of 10% egg yolk phospholipids in the form of sonicated liposomes prepared as previously described, 16 mM ATP and (where indicated) in a final volume of 700 μL. […] Where indicated, proteoliposome internal volume was measured using a colorimetric phosphate method. […] At the end, absorbance from each sample was measured at 578 nm. […]
Proteoliposomes (550 µL) were passed through a Sephadex G-75 column (0.7 cm diameter x 15 cm height) pre-equilibrated with 5 mM Tris/HCl (pH 7.5). […] Finally, each sample of proteoliposomes (100 µL) was passed through a Sephadex G-75 column (0.6 cm diameter × 8 cm height) in order to separate the external from the internal radioactivity. Liposomes were eluted with 1 mL of 50 mM NaCl and collected in 4ml of scintillation mixture, vortexed, and counted. […]

[Na+] [Na^+]
IC50 ([1]; in the presence of 8.3% CHS): 2200 ± 200 µM
IC50 ([2]; in the presence of 8.3% CHS): 1700 ± 500 µM

CC(C)CCC[C@@H](C)[C@H]1CC[C@H]2[C@@H]3CC=C4C[C@@H](OC(=O)CCC(=O)O)CC[C@]4(C)[C@H]3CC[C@]12C [CHS, Cholesteryl HemiSuccinate]
transport of acetylcholine relative to control (without added cholesterol) ([1]; 8.3% CHS (83 µg CHS/mg total lipids), 0.1 mM [3H]-acetylcholine): about double the control
CHS amount giving optimal transport activity ([1]; [3H]-acetylcholine uptake): 83 µg CHS/ mg total lipids
transport of TEA relative to control (without added cholesterol) ([2]; 8.3% CHS (83 µg CHS/mg total lipids), 0.1 mM [14C]-TEA): about double the control
CHS amount giving optimal transport activity ([2]; [14C]-tetraethylamonium uptake): 83 µg CHS/ mg total lipids
relative concentration of immuno-stained OCTN1, normalized to 0% CHS (100%) ([3]; 2.1% CHS): 109 ± 14%
relative concentration of immuno-stained OCTN1, normalized to 0% CHS (100%) ([3]; 4.2% CHS): 104 ± 5.8%
relative concentration of immuno-stained OCTN1, normalized to 0% CHS (100%) ([3]; 8.3% CHS): 106 ± 9.1%

C[N+]1(C)CCOC(O)(c2ccc(-c3ccc(C4(O)C[N+](C)(C)CCO4)cc3)cc2)C1 (stereo not shown) [hemicholinium]
IC50 ([1]; in the absence of CHS): 530 ± 46 µM
IC50 ([1]; in the presence of 8.3% CHS): 300 ± 52 µM

CC[N+](CC)(CC)CC [TEA, Tetraethylammonium]
Km [2]: 900 µM and 800 µM
Vmax of transport [2]: 36.1 ± 8.6 nmol ⋅ min^−1 ⋅ mg protein^−1 and 66.6 ± 16.4 nmol ⋅ min^−1 ⋅ mg protein^−1

Nc1ncnc2c1ncn2[C@@H]1O[C@H](COP(=O)(O)OP(=O)(O)OP(=O)(O)O)[C@@H](O)[C@H]1O [ATP]
effect of intraliposomal ATP on transport ([1]; acetylcholine uptake, 8.3% CHS): stimulated the transport
effect of intraliposomal ATP on transport ([2]; TEA uptake, 8.3% CHS): stimulated the transport

Methyl-beta-CycloDextrin [MβCD]
decrease of the native OCTN1 activity with respect to the control ([4]; HeLa cell extract incubated with 10 mM MβCD prior to reconstitution): 35%
decrease of the native OCTN1 activity with respect to the control ([4]; HeLa cells incubated with 10 mM MβCD prior to solubilization): 23%
decrease in transport activity ([2]; proteoliposomes with 8.3% CHS incubated with 10 mM MβCD, 0.1 mM [14C]-TEA): 31%
reduction of the initial CHS concentration [5]: 40%

[Cl][Hg][Cl] [HgCl2]
IC50 ([2]; in the absence of CHS): 270 ± 50 µM
IC50 ([2]; in the presence of 8.3% CHS): 200 ± 30 µM

CC[N+](CC)(CC)Cc1ccccc1 [TEBA, Benzyltriethylammonium]
IC50 ([2]; in the absence of CHS): 1600 ± 300 µM
IC50 ([2]; in the presence of 8.3% CHS): 1900 ± 700 µM

B1: human recombinant OCTN1 (Homo sapiens) (protein)
chain: T1 sequence (Q9H015 1-551)
notes: made in house; host or cells: E. coli
Km [6]: 1100 ± 370 µM
Vmax [6]: 49.3 ± 12.4 nmol ⋅ min^−1 ⋅ mg protein^−1
